Measured values taken from patent publication US20250163016A1, “PYRIDINE DERIVATIVE, PREPARATION METHOD THEREFOR AND USE THEREOF” (CHENGDU EASTON BIOPHARMACEUTICALS CO., LTD., priority 2022, published 2025).

Assays:
[1] = Pharmacokinetics of oral administration of rats; assay type: in vivo; conditions: male, rat, SD rats, p.o. 5.0 mg/kg, plasma
Description: With SD rats as tested animals, blood drug concentrations in plasma at different moments after oral administration of the compounds of the present application by the rats in a clarification kit mode were determined using an LC-MS/MS method. Pharmacokinetic parameters of the compounds of the present application in the rats were obtained, and pharmacokinetic characteristics of the compounds were studied.
• SD rats, male, weight 180-220 g, 3 rats per group. The animals were fed in an animal house after being purchased, an adaptation period was at least 3 days, and they were used for tests after passing quarantine.
According to Table 4, each group of rats was given the corresponding tested drugs or positive drugs by gavage, before administration, and 15 min, 30 min, 1 h, 2 h, 4 h, 6 h, 8 h, and 24 h after administration, a fixed volume of blood was collected through eye sockets and placed in an EDTA-K2 anticoagulant tube, centrifuging was carried out at 8000 rpm for 1 min to separate plasma into a centrifuge tube, and the plasma was frozen in a −20° C. refrigerator.
The plasma at each time point stored at −20° C. was taken out, then acetonitrile was added, after whirling at 1500 revolutions for 2 min, centrifuging was carried out for 15 min (3500 r/min), and a fixed volume of solution supernatant was taken for LC-MS/MS analysis.
Non-compartment model fitting was carried out on pharmacokinetic behaviors of the tested compounds, and DAS3.31 software was adopted to calculate main pharmacokinetic parameters (T1/2, Tmax, Cmax, AUClast, etc.).

[2] = Liver microsome stability, monkeys; assay type: in vitro ADME; conditions: Monkeys liver microsomes; for CLint scaled / half-life: monkey; for half-life: NADPH, 37° C.
Description: (§1) A liver microsome in-vitro warm incubation method used liver microsomes, supplemented by an NADPH regeneration system, to simulate physiological environmental conditions in vitro for metabolic reaction, after a certain period of reaction, LC-MS/MS was used to determine prototype drugs and metabolites in a warm incubation solution, and the content was preliminarily analyzed. Studying the liver microsome stability of drugs in different species was crucial for understanding a change process of the drugs in vivo.
(§2) 2.1. Liver Microsomes in Different Species Including Rats, Mice, Humans, Dogs and Monkeys
(§3) According to the requirements of the instructions of a Phase I Metabolic Stability Kit, a liver microsome incubation system was prepared, and according to a sequence, a mixed system of a PBS, liver microsomes, an NADPH regeneration system solution A and an NADPH regeneration system solution B, as well as substances to be tested were added in sequence respectively, and were incubated at 37° C. Each sample was parallelized 3 times, with a sample without an NADPH generation system as a negative control, after 0, 5, 15, 30, 45, and 60 min, equal volumes of pre-cooled acetonitrile were added to terminate the reaction respectively, and the prototype drug content in a warm incubation solution was determined by LC-MS/MS.

[3] = system: NCI-H1417 cells; experiment: NCI-H1417 cell proliferation inhibition test (Celltiter GLO); assay type: cell-based; conditions: Homo sapiens, 168 h, NCI-H1417, 7 days culture
Description: Research had confirmed that LSD1 played a crucial role in the occurrence process of various types of cancers, including small cell lung cancer (SCLC) and acute myeloid leukemia (AML). Therefore, a human small cell lung cancer (NCI-H1417) cell line was used to determine the ATP content in cells at different drug concentrations using a Celltiter GLO assay kit, and the cell activity was reflected by luminescence intensity. IC50 values of different compounds on the NCI-H1417 cells were calculated using inhibition rates. The inhibitory effects of the compounds in the present application on the proliferation of the NCI-H1417 cells were studied to evaluate the anti-tumor efficacy of the tested compounds at the cellular level.
• Day 1 Cells were seeded into the 384-well cell culture plate and placed in a 37° C. 5% CO2 cell incubator to be cultured overnight. • Day 0 The compound to be tested was prepared into a 10 mM mother liquid using DMSO, starting from 1 μM, diluted by 3 folds, with 10 concentration points and double duplicate wells. A diluted compound was added into the 384-well cell culture plate and placed in a 37° C. 5% CO2 cell incubator to be cultured for 7 days. The concentration of the DMSO in a cell culture system was 0.1%. • Day 7 Celltiter GLO was added into the 384-well cell culture plate according to a volume ratio of culture system:Celltiter GLO=1:1, light-shielded oscillation was carried out on a plate oscillator for 3 min, then the cell culture plate was placed at the room temperature for 30 min with light shielded, and the plate was read using a multifunctional microplate reader chemical light emitting module.
An inhibition percentage was calculated by utilizing luminescence intensity of the above DMSO group (with DMSO added), test group (with the tested compound and a positive control solution added) and blank group (not treating cells), a calculation formula being
Using a logarithm of the concentration as an X axis and the percentage inhibition rate as a Y axis, a dose-response curve was fitted using a formula log(inhibitor) vs. response-Variable slope (Four parameters) of analysis software Graphpad Prism 8 to obtain the IC50 value of each compound on NCI-H1417 proliferation inhibition activity.

[4] = Liver microsome stability, mice; assay type: in vitro ADME; conditions: Mice liver microsomes; for CLint scaled / half-life: mouse; for half-life: NADPH, 37° C.
Description: as §1, §2, §3

[5] = Liver microsome stability, dogs; assay type: in vitro ADME; conditions: Dogs liver microsomes; for CLint scaled / half-life: dog; for half-life: NADPH, 37° C.
Description: as §1, §2, §3

[6] = Liver microsome stability, rats; assay type: in vitro ADME; conditions: Rats liver microsomes; for CLint scaled / half-life: rat; for half-life: NADPH, 37° C.
Description: as §1, §2, §3

[7] = Liver microsome stability, humans; assay type: in vitro ADME; conditions: Humans liver microsomes; for CLint scaled / half-life: human; for half-life: NADPH, 37° C.
Description: as §1, §2, §3

Row | Structure (SMILES) | AUC(0-t) [1] [ng·h/mL] | Cmax [1] [ng/mL] | Tmax [1] [h] | half-life [1] [h] | Remaining (T = 60 min) [2] [%] | CLint scaled [2] [mL/min/kg] | half-life [2] [h] | IC50 [3] [nM] | Remaining (T = 60 min) [4] [%] | CLint scaled [4] [mL/min/kg] | half-life [4] [h] | Remaining (T = 60 min) [5] [%] | CLint scaled [5] [mL/min/kg] | half-life [5] [h] | Remaining (T = 60 min) [6] [%] | CLint scaled [6] [mL/min/kg] | half-life [6] [h] | Remaining (T = 60 min) [7] [%] | CLint scaled [7] [mL/min/kg] | half-life [7] [h]
1 | CC(C)(O)Cn1ncc2cc(-c3c(C#N)cc(N4CCC(N)CC4)nc3-c3ccc(C#N)c(F)c3)c(F)cc21 [Compound 16, 6-(4-aminopiperid-1-yl)-2-(4-cyano-3-fluorophenyl)-3-(6-fluoro-1-(2-hydroxyl-2-methylpropyl)-1H-indazol-5-yl)isonicotinonitrile] | 561 ± 347 | 69.9 ± 33.5 | 4 | 3.46 ± 0.02 | 62.0 | 19.2 | 1.62 | 2.79 | 77.8 | < 38 | > 2.42 | 76.4 | < 13.8 | > 2.42 | 72.1 | < 17.3 | > 2.42 | 70.8 | < 8.6 | > 2.42
2 | COc1ccc(-c2c(-c3ccc(C#N)c(F)c3)nc(N3CCC(N)CC3)n(C)c2=O)cc1F [CC-90011, reference compound] | 356 ± 46.5 | 48.9 ± 12.5 | 3.33 ± 2.31 | 1.44 ± 0.52 | 56.8 | 25 | 1.25 | 22.9 | 72.2 | 42.2 | 2.17 | 76.6 | 15.8 | 2.1 | 58.6 | 31.2 | 1.33 | 67.2 | 13.2 | 1.57
3 | CC(C)(O)Cn1nc(F)c2cc(-c3c(C#N)cc(N4CCC(N)CC4)nc3-c3ccc(C#N)c(F)c3)c(F)cc21 [Compound 36, 6-(4-aminopiperid-1-yl)-2-(4-cyano-3-fluorophenyl)-3-(3,6-difluoro-1-(2-hydroxyl-2-methylpropyl)-1H-indazol-5-yl)isonicotinonitrile] | 769 ± 361 | 100 ± 54.4 | 4.67 ± 1.15 | 3.57 ± 0.34 | 72.1 | 16.9 | 1.84 | 4 | 75.5 | < 38 | > 2.42 | 76.3 | < 13.8 | > 2.42 | 76.1 | < 17.3 | > 2.42 | 81.7 | < 8.6 | > 2.42
